From patent publication US8232289B2, “Spiropiperidine compounds as ORL-1 receptor antagonists” (Eli Lilly and Company, priority 2009, dated 2012)
Where two headings read alike, the source gives them in different places. Marks after values point to notes of the source that are not given here. Values belong to the compound of their own block, whether it stands above or below them.

Assays:
5-HT5 = 5-HT5 (Homo sapiens, UniProt P47898); experiment: Radioligand binding selectivity, 5-HT5
Source text: (§1) Similarly, Ki for the mu, kappa and delta opioids, serotonin, dopamine, adrenergic, mucarinic, and histamine receptors, as well as binding to the norepinephrine transporter, sodium channel, chloride channel, and calcium channel may be determined using membranes expressing the desired receptor/transporter/channels and appropriate corresponding radioligand competitor molecules.

D1 Dopamine = D1 Dopamine (Homo sapiens, UniProt P21728); experiment: Radioligand binding selectivity, D1 Dopamine
Sequence of D1 Dopamine (P21728 whole entry): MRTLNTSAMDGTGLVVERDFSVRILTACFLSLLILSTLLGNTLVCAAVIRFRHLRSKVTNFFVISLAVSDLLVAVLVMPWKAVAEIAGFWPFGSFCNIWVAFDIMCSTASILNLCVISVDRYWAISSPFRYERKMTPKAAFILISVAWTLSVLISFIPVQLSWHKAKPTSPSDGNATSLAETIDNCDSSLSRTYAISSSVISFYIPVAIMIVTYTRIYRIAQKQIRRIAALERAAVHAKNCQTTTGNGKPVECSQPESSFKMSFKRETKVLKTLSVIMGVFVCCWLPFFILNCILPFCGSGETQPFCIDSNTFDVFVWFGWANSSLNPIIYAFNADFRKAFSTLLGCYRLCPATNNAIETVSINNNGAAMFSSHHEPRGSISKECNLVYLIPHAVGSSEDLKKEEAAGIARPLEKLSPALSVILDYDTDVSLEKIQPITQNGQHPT
Source text: as §1

5-HT1D = 5-HT1D (Homo sapiens, UniProt P28221); experiment: Radioligand binding selectivity, 5-HT1D
Sequence of 5-HT1D (P28221 whole entry, species assumed): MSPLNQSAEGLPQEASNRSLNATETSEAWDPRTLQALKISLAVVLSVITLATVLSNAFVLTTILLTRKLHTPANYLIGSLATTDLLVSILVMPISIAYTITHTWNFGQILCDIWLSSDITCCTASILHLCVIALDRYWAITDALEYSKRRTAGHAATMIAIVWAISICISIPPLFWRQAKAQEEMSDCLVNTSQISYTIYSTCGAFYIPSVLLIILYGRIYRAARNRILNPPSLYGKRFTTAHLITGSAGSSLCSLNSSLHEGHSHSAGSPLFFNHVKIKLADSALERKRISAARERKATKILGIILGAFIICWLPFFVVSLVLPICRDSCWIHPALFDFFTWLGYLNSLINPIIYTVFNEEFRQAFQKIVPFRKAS
Source text: as §1

Adrenergic Alpha1 = experiment: Radioligand binding selectivity, Adrenergic Alpha1
Source text: as §1

5-HT6 = 5-HT6 (Homo sapiens, UniProt P50406); experiment: Radioligand binding selectivity, 5-HT6
Sequence of 5-HT6 (P50406 whole entry, species assumed): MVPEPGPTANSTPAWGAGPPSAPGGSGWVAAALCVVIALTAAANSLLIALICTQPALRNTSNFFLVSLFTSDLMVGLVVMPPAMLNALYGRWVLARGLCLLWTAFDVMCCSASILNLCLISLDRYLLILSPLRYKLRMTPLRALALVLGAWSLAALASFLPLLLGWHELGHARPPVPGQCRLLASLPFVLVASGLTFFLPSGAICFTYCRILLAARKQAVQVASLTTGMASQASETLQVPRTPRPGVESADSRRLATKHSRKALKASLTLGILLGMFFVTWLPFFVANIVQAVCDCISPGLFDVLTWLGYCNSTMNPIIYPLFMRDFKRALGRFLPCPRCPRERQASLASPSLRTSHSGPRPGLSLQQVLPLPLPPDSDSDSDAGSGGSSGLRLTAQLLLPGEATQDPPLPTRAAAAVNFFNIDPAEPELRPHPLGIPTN
Source text: as §1

Na+ channel = experiment: Radioligand binding selectivity, Na+ channel
Source text: as §1

5-HT2B = 5-HT2B (Homo sapiens, UniProt P41595); experiment: Radioligand binding selectivity, 5-HT2B
Sequence of 5-HT2B (P41595 whole entry, species assumed): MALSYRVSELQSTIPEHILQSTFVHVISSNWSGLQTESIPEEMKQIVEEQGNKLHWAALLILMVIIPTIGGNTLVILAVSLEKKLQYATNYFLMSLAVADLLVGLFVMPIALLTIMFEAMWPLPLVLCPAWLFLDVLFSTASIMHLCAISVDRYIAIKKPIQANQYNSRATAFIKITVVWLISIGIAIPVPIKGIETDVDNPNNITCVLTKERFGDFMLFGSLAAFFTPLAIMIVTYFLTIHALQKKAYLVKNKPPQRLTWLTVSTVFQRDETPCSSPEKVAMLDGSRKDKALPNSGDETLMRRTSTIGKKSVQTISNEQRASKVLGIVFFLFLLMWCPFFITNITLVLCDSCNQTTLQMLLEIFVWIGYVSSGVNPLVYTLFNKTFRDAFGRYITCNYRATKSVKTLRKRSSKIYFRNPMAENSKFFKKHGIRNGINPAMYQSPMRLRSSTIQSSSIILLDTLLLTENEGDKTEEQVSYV
Source text: as §1

5-HT4 = 5-HT4 (Homo sapiens, UniProt Q13639); experiment: Radioligand binding selectivity, 5-HT4
Sequence of 5-HT4 (Q13639 whole entry, species assumed): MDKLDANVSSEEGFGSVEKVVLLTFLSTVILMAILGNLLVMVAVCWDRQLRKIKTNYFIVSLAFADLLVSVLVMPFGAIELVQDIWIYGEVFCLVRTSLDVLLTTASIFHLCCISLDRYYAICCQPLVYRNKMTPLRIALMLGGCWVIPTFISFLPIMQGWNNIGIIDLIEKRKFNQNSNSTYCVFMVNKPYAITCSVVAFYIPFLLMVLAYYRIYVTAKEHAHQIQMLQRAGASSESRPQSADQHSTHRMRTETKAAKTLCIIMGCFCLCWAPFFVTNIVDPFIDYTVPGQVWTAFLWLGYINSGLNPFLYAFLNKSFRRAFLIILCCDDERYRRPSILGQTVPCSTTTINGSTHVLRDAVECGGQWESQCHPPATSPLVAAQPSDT
Source text: as §1

Cl− channel = experiment: Radioligand binding selectivity, Cl− channel
Source text: as §1

Adrenergic Beta1 = Adrenergic Beta1 (Homo sapiens, UniProt P08588); experiment: Radioligand binding selectivity, Adrenergic Beta1
Sequence of Adrenergic Beta1 (P08588 whole entry): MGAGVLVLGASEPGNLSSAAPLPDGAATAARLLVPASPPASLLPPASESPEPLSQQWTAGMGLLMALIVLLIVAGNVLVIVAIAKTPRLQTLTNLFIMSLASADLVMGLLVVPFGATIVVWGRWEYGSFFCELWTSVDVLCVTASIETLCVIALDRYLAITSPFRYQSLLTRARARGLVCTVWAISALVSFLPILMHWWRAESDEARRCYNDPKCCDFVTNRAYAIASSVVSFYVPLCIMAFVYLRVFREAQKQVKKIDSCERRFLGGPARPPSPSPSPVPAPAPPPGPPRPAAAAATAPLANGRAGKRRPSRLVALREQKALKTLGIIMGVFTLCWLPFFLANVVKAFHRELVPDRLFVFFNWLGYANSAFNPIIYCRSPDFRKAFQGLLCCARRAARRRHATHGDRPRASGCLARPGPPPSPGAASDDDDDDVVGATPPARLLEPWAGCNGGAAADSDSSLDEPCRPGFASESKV
Source text: as §1

Ca+2 channel (DHP site) = experiment: Radioligand binding selectivity, Ca+2 channel (DHP site)
Source text: as §1

Adenosine A3 = Adenosine A3 (Homo sapiens, UniProt P0DMS8); experiment: Radioligand binding selectivity, Adenosine A3
Sequence of Adenosine A3 (P0DMS8 whole entry): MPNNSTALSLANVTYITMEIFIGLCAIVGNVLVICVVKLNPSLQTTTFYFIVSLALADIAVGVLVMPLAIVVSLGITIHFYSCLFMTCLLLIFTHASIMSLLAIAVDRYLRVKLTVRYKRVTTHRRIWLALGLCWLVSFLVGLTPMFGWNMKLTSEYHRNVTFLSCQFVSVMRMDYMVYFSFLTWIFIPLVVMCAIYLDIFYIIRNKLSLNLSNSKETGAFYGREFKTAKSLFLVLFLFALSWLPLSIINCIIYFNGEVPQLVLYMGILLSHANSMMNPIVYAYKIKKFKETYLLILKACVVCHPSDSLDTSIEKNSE

Adrenergic Alpha2 = experiment: Radioligand binding selectivity, Adrenergic Alpha2
Source text: as §1

[1] = biological target: Ca+2 channel (diltiazem site); experiment: Radioligand binding selectivity, Ca+2 channel (diltiazem site)
Source text: as §1

[2] = biological target: Ca+2 channel (verapamil site); experiment: Radioligand binding selectivity, Ca+2 channel (verapamil site)
Source text: as §1

5-HT2C = 5-HT2C (Homo sapiens, UniProt P28335); experiment: Radioligand binding selectivity, 5-HT2C
Sequence of 5-HT2C (P28335 33-458, species assumed): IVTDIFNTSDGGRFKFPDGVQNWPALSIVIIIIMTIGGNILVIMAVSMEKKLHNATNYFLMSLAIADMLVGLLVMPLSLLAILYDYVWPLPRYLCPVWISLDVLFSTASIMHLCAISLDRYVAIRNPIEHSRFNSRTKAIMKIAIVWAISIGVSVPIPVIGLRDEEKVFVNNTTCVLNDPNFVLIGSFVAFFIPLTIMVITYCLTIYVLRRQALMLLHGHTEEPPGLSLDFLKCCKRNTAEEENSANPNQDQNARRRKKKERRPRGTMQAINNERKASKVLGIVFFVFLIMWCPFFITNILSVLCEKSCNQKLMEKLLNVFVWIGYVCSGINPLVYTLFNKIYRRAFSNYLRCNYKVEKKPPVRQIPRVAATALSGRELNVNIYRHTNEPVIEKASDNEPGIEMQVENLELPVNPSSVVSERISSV
Source text: as §1

Male Sprague-Dawley rats = experiment: Rat dural plasma protein extravasation (PPE) model, oral dosing; type: in vivo
Procedure: All test compounds are prepared in a vehicle solution containing 20% Captisol in 25 mM phosphate buffer (pH 2.0). The positive control compound, sumatriptan, is dissolved in saline. Male Sprague-Dawley rats from Harlan Laboratories (250 to 350 g), that have been fasted overnight, are dosed with test compound, sumatriptan or vehicle by oral gavage (2 mL/kg). Fifty min. post-dose the rats are anesthetized with Nembutal (60 mg/kg, ip) and placed in a stereotaxic frame with the incisor bar set at −2.5 mm. Following a mid-line sagittal scalp incision, 2 pairs of bilateral holes were drilled through the skull (3.2 mm posteriorly, 1.8 and 3.8 mm laterally, all coordinates referenced to bregma). Pairs of stainless steel stimulating electrodes (Rhodes Medical Systems Inc), insulated except at the tips, are lowered through the holes in both hemispheres to a depth of 9.2 mm below the dura.
A solution of fluoroscein isothiocyanate (FITC) dye-labeled bovine serum albumin (BSA) (FITC-BSA) (20 mg/kg, iv), is injected into the femoral vein 2 minutes prior to electrical stimulation of the trigeminal ganglion to function as the marker for protein extravasation. Sixty minutes following dosing with test compound or vehicle, the left trigeminal ganglion is electrically stimulated for 5 minutes at a current intensity of 1.0 mA (5 Hz, 5 minutes duration).
Five minutes following stimulation, the rats are killed by exsanguination with 40 mL of saline which also rinses residual FITC/BSA out of the blood vessels. The top of the skull is removed to collect the dural membranes. The membrane samples are removed from both hemispheres, rinsed with water, and spread flat on microscope slides. The slides are dried for 15 minutes on a slide warmer and cover-slipped with a 70% glycerol/water solution.
A fluorescence microscope equipped with a grating monochromator and a spectrophotometer is used to quantify the amount of FITC-BSA dye in each dural sample. The microscope is equipped with a motorized stage interfaced with a personal computer. This facilitates the computer-controlled movement of the stage, with fluorescence measurements at 25 points (500 μm steps) on each dural sample. The extravasation induced by electrical stimulation of the trigeminal ganglion is an ipsilateral effect (that is occurs only on the side of the dura in which the trigeminal ganglion is stimulated). This allows the other (unstimulated) half of the dura to be used as a control. The extravasation ratio (that is the ratio of the amount of extravasation in the dura from the stimulated side compared to the unstimulated side) is calculated. Animals dosed with vehicle alone or an ineffective dose of the test compound have an extravasation ratio of approximately 2, while totally effective treatments result in a ratio of approximately 1.
Results are expressed as mean values with standard errors of the mean (±SEM). All statistical evaluations are conducting utilizing ANOVA followed by comparison to the control group by Dunnett's Method. Statistical significance is assumed when p<0.05. Statistical analyses are performed using JMP statistical analysis software (SAS Research Institute, version 6.0.2).

[3] = tested on: 129S6 wild type and nociceptin/ORL1 receptor knockout mice; experiment: mFST in wild type and ORL-1 knockout mice; type: in vivo
Source text: mFST is an established in vivo assay for antidepressant activity (Li et al. J Pharmacol Exp Ther. 319(1):254-9, 2006.). […] The mFST was used to evaluate potential antidepressant-like activity of novel nociceptin/ORL1 antagonists according to previously published methods (Li et al. J Pharmacol Exp Ther. 319(1):254-9, 2006.). Briefly, male NIH-Swiss mice (Harlan Sprague-Dawley, Indianapolis, Ind.) weighing between 25-30 g are used. Group housed animals are removed from the vivarium to the testing area in their own cages and allowed to adapt to the new environment for at least 1 hour before testing. Alternatively, male 129S6 wild type and nociceptin/ORL1 receptor knockout mice were used to confirm dependence of the response to compound was nociceptin/ORL1 receptor dependent. All compounds are prepared in 20% Captisol, 25 mM phosphate buffer, pH 2.0 on the day of use. Mice are placed in a cylinder (diameter: 10 cm; height: 25 cm) filled with 6 cm of water (22-25° C.) for 6 min. The duration of immobility during the last 4 min. of the 6 min. period of the test was scored. A mouse is recorded as immobile when floating motionless or making only those movements necessary to keep its head above water.
Yet further, these effects of reduced immobilization times are not observed when ORL-1 knockout mice, a strain of mice engineered to lack the ORL-1 receptor, are used, showing that the effect is indeed mediated by the ORL-1 receptor.

Sequence of 5-HT5 (P47898 whole entry): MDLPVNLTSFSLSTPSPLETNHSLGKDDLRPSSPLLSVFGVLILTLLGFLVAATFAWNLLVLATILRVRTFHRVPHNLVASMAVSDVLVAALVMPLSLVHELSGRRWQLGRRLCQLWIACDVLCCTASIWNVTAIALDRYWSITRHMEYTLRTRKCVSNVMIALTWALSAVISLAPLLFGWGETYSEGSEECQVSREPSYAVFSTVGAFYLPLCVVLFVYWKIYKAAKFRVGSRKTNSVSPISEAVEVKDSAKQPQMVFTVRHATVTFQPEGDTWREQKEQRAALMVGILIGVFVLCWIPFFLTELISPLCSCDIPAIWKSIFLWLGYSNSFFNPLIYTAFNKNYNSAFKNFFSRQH

Compound: O=C(O)C(O)C(O)C(=O)O.OCc1nn(-c2ncccc2F)cc1CN1CCC2(CC1)OCC(F)(F)c1cc(Cl)sc12 [Example 53, [4-[(2-Chloro-4,4-difluoro-spiro[5H-thieno[2,3-c]pyran-7,4′-piperidine]-1′-yl)methyl]-1-(3-fluoro-2-pyridyl)pyrazol-3-yl]methanol (L)-Tartrate]
- Ki (5-HT5): > 9.09 µM
- Ki (D1 Dopamine): > 5 µM
- Ki (5-HT1D): > 8.55 µM
- Ki (Adrenergic Alpha1): > 5 µM
- Ki (5-HT6): > 5.83 µM
- Ki (Na+ channel): > 0.5 µM
- Ki (5-HT2B): 0.22 µM
- Ki (5-HT4): > 4.12 µM
- Ki (Cl− channel): > 0.5 µM
- Ki (Adrenergic Beta1): > 5 µM
- Ki (Ca+2 channel (DHP site)): > 5 µM
- Ki (Adenosine A3): > 5 µM
- Ki (Adrenergic Alpha2): > 5 µM
- Ki [1]: > 0.5 µM
- Ki [2]: > 5 µM
- Ki (5-HT2C): > 5.65 µM

- Ki (5-HT5; read-out: Ki 5-HT5): > 9.09 µM
- Ki (D1 Dopamine; read-out: Ki D1 Dopamine): > 5 µM
- Ki (5-HT1D; read-out: Ki 5-HT1D): > 8.55 µM
- Ki (Adrenergic Alpha1): > 5 µM
- Ki (Na+ channel): 0.235 µM
- Ki (5-HT2B; read-out: Ki 5-HT2B): 0.693 µM
- Ki (5-HT4; read-out: Ki 5-HT4): > 4.12 µM
- Ki (Cl− channel): > 0.5 µM
- Ki (Adrenergic Beta1): > 5 µM
- Ki (Ca+2 channel (DHP site)): > 5 µM
- Ki (Adenosine A3): > 5 µM
- Ki (Adrenergic Alpha2): > 5 µM
- Ki [1]: > 0.5 µM
- Ki [2]: > 0.5 µM
- Ki (5-HT2C; read-out: Ki 5-HT2C): > 5.65 µM
Compound: Cc1nn(-c2ncccc2CO)cc1CN1CCC2(CC1)OCC(F)(F)c1cc(Cl)sc12 [Example 62, [2-[4-[(2-Chloro-4,4-difluoro-spiro[5H-thieno[2,3-c]pyran-7,4′-piperidine]-1′-yl)methyl]-3-methyl-pyrazol-1-yl]-3-pyridyl]methanol]
- Extravasation Ratio (mean) (Male Sprague-Dawley rats; 0.1 mg/kg po): 1.83
- Extravasation Ratio (mean) (Male Sprague-Dawley rats; 1.0 mg/kg po): 1.44*
- Extravasation Ratio (mean) (Male Sprague-Dawley rats; 10.0 mg/kg po): 1.20*
- Extravasation Ratio (mean) (Male Sprague-Dawley rats; 30.0 mg/kg po): 1.14*
- blockade of extravasation (Male Sprague-Dawley rats; oral dosing): effectively block extravasation in a dose dependent manner
- effect on immobilization time ([3]; ORL-1 knockout mice): no effect
- effect on immobilization time ([3]; wild type mice): significantly reduce the immobilization time
